Test results taken from patent publication US7851510B2, “Gossypol derivatives, production method thereof and uses of same” (Centre National de la Recherche Scientifique (C.N.R.S.), priority 2004, dated 2010).
Like-named read-outs stand apart in the source and are kept apart here.

Legend:
KB tumour cell line = assay: Cytotoxicity vis-à-vis the KB tumour cell line; type: cell-based; conditions: Homo sapiens
Method: The cytotoxicity of the compound vis-à-vis the KB tumour cell line was measured as is described in Dao et al. (2003) Bioorg. Med. Chem. 11:2001-2006.

CDK2/cyclin A = CDK2/cyclin A (Homo sapiens, UniProt P24941); assay: Protein kinase activity in the presence of compound; type: biochemical; conditions: read-out: Residual activity CDK2/cyclin A
Method: (§1) The action of the compound of formula (14) was tested on a selection of 29 different protein kinases. The activity of these enzymes was measured in the presence of 10 μM of compound, according to the general methodology described by Bain et al. (2003) Biochem. J. 371:199-204 and Davies et al. (2000) Biochem. J. 351:95-105.
(§2) Residual enzyme activity of protein kinases in the presence of inhibitor compounds at the concentration given (expressed as a percentage of the activity measured in the absence of inhibitors). The results obtained for gossypol and gossypolone are given by way of comparison.

CK1 = assay: as above; type: biochemical; conditions: 10 μM compound; percentage of the activity measured in the absence of inhibitors
Method: as §1, §2

DYRK1a = DYRK1a (Homo sapiens, UniProt Q13627); assay: as above; type: biochemical; conditions: read-out: Residual activity DYRK1a
Method: as §1, §2

GSK3b = GSK3b (Homo sapiens, UniProt P49841); assay: as above; type: biochemical; conditions: read-out: Residual activity GSK3b
Chain of GSK3b (P49841 whole entry, species assumed): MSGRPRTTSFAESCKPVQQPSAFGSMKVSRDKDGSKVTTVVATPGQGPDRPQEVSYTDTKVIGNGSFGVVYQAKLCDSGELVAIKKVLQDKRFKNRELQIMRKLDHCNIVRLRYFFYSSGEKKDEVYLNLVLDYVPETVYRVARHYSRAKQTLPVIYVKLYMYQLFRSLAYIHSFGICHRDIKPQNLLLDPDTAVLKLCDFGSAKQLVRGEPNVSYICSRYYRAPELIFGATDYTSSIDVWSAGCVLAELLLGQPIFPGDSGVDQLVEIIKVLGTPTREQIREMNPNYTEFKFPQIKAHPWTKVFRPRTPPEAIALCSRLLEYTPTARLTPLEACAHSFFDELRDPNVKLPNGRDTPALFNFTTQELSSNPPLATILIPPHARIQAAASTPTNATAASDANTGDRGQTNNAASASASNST
Method: as §1, §2

MAPKAP-K2 = MAPKAP-K2 (Homo sapiens, UniProt P49137); assay: as above; type: biochemical; conditions: read-out: Residual activity MAPKAP-K2
Chain of MAPKAP-K2 (P49137 whole entry, species assumed): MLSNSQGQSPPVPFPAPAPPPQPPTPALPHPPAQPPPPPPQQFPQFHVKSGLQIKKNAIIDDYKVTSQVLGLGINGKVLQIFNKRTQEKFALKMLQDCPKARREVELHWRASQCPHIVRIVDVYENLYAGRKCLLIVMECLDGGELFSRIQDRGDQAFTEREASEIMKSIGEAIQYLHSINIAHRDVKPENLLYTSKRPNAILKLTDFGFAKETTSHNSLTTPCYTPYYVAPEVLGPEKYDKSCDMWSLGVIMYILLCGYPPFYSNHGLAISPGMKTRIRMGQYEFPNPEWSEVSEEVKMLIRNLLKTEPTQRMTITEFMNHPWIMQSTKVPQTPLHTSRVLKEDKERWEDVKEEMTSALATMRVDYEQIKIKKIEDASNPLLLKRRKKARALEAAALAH
Method: as §1, §2

MSK1 = MSK1 (Homo sapiens, UniProt O75582); assay: as above; type: biochemical; conditions: read-out: Residual activity MSK1
Chain of MSK1 (O75582 whole entry, species assumed): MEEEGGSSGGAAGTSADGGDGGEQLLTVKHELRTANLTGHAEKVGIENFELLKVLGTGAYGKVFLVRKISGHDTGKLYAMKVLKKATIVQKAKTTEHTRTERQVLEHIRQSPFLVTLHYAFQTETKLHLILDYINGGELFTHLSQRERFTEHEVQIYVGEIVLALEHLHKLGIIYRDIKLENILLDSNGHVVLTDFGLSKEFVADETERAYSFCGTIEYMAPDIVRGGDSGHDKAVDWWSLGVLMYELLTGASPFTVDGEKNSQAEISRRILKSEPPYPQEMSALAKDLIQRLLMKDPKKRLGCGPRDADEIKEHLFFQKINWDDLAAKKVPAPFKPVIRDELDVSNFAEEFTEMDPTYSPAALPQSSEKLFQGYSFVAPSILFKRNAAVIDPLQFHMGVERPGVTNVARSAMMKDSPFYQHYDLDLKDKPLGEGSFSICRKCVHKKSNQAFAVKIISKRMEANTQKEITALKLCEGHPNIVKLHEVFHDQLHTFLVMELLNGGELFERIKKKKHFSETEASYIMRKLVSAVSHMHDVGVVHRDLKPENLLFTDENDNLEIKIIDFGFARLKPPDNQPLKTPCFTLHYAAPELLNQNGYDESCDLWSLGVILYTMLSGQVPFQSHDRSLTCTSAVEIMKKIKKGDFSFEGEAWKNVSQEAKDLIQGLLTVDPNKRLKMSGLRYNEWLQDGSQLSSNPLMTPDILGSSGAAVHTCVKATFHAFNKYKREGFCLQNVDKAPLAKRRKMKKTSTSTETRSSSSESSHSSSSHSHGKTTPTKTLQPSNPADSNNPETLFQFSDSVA
Method: as §1, §2

PDK1 = molecular target: T1, PDK1 (Homo sapiens, UniProt O15530); assay: as above; type: biochemical; conditions: read-out: Residual activity PDK1
T1 sequence (O15530 1-556): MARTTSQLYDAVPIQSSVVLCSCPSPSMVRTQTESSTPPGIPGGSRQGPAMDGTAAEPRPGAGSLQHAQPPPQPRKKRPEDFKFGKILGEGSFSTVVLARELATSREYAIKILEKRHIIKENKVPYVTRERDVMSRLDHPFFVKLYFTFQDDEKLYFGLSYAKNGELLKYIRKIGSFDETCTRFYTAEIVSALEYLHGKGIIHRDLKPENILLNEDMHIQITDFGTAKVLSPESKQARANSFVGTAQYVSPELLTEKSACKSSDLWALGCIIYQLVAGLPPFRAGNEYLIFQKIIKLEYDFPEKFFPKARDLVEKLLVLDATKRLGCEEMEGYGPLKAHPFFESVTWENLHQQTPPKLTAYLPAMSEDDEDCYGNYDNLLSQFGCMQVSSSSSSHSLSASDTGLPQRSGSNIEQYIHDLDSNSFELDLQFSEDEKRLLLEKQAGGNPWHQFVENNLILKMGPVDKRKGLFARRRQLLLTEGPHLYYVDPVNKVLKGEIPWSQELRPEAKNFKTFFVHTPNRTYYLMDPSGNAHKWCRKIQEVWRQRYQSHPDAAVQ
Method: as §1, §2

PKCa = PKCa (Homo sapiens, UniProt P17252); assay: as above; type: biochemical; conditions: read-out: Residual activity PKCa
Method: as §1, §2

PRAK = molecular target: T2, PRAK (Homo sapiens, UniProt Q8IW41); assay: as above; type: biochemical; conditions: for remaining activity at 10 µM: read-out: Residual activity PRAK
T2 sequence (Q8IW41 1-473): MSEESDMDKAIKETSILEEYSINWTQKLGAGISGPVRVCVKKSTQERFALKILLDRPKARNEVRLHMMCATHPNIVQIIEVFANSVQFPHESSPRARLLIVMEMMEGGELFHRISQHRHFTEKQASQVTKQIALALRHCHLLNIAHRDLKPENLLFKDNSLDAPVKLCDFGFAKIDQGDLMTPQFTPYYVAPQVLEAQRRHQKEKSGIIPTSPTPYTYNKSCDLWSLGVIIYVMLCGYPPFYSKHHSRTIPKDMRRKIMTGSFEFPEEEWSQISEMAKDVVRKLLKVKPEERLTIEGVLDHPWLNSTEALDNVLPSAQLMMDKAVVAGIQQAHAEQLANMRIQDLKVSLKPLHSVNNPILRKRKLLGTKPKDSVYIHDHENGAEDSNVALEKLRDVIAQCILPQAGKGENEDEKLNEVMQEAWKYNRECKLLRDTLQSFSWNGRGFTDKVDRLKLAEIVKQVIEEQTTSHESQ
Method: as §1, §2

SGK = molecular target: T3, SGK (Homo sapiens, UniProt O00141); assay: as above; type: biochemical; conditions: for remaining activity at 10 µM: read-out: Residual activity SGK
T3 sequence (O00141 1-431): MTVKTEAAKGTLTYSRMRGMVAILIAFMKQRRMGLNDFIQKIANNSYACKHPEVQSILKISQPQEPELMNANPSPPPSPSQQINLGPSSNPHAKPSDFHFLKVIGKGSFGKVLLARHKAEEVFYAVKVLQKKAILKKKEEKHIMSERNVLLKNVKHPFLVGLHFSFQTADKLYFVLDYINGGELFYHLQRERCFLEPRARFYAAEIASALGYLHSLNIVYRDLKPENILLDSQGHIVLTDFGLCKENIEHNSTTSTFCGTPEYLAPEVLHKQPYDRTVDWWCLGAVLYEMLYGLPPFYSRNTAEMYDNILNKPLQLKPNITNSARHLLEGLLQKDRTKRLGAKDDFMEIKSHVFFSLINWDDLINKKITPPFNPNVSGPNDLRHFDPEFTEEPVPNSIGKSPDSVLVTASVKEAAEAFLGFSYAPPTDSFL
Method: as §1, §2

[1] = 10 μM compound, percentage of the activity measured in the absence of inhibitors

| Structure (SMILES) | remaining activity at 10 µM (CDK2/cyclin A) | Residual activity CK1 (CK1) | remaining activity at 10 µM (DYRK1a) | remaining activity at 10 µM (GSK3b) | remaining activity at 10 µM (MAPKAP-K2) | remaining activity at 10 µM (MSK1) | remaining activity at 10 µM (PDK1) | remaining activity at 10 µM (PKCa) | Reduction of the activity of PRAK (PRAK; 10 μM compound) | remaining activity at 10 µM (PRAK) | Reduction of the activity of SGK (SGK; 10 μM compound) | remaining activity at 10 µM (SGK) | also measured |
| --- | --- | --- | --- | --- | --- | --- | --- | --- | --- | --- | --- | --- | --- |
| CC1=C(C2=C(C)C(=O)c3c(c(O)c(O)c(O)c3C(C)C)C2=O)C(=O)c2c(O)c(O)c(O)c(C(C)C)c2C1=O [Compound (4), 6,7,8,6′,7′,8′-hexahydroxy-5,5′-diisopropyl-3,3′-dimethyl-[2.2′]binaphthalenyl-1,4,1′,4′-tetraone] | 113% | 88% | 25% | 63% | 28% | 69% | 88% | 85% | 91% | 9% | 96% | 4% | IC50 (KB tumour cell line): 1000 nM |
| CC1=C(C2=C(C)C(=O)c3c(c(CSCCO)c(O)c(O)c3C(C)C)C2=O)C(=O)c2c(CSCCO)c(O)c(O)c(C(C)C)c2C1=O [Compound (14), 6,7,6′,7′-tetrahydroxy-8,8′-bis-(2-hydroxy-ethylsulphanylmethyl)-5,5′-diisopropyl-3,3′-dimethyl-[2,2′]binaphthalenyl-1,4,1′,4′-tetraone] |  | 77% |  |  |  |  |  |  | 91% |  | 93% |  | remaining activity at 10 µM (CDK2/cyclin A; [1]): 111%; remaining activity at 10 µM (DYRK1a; [1]): 16%; remaining activity at 10 µM (GSK3b; [1]): 85%; remaining activity at 10 µM (MAPKAP-K2; [1]): 36%; remaining activity at 10 µM (MSK1; [1]): 83%; remaining activity at 10 µM (PDK1; [1]): 65%; remaining activity at 10 µM (PKCa; [1]): 86%; remaining activity at 10 µM (PRAK; [1]): 9%; remaining activity at 10 µM (SGK; [1]): 7% |
| Cc1cc2c(C(C)C)c(O)c(O)c(C=O)c2c(O)c1-c1c(C)cc2c(C(C)C)c(O)c(O)c(C=O)c2c1O [Gossypol, gossypol] | 97% | 89% | 21% | 47% | 56% | 79% | 71% | 96% |  | 48% |  | 14% |  |
| CC1=C(C2=C(C)C(=O)c3c(c(C=O)c(O)c(O)c3C(C)C)C2=O)C(=O)c2c(C=O)c(O)c(O)c(C(C)C)c2C1=O [Gossypolone, gossypolone, reference compound] | 90% | 64% | 27% | 43% | 28% | 85% | 51% | 78% |  | 9% |  | 3% |  |
